{"source": "paper PMC6235670", "about": "“An mTOR Signaling Modulator Suppressed Heterotopic Ossification of Fibrodysplasia Ossificans Progressiva” (Stem Cell Reports, 2018)", "key": {"[1]": {"system": "TGF-β signaling (CAGA-Luc)", "assay": "CAGA-Luc reporter assay in FOP-iMSCs", "assay_type": "cell-based, human", "conditions": "activin A and compounds for 3 hr", "protocol": "(§1) FOP-iMSCs transiently transfected with BRE-Luc (A) or CAGA-Luc (B) with CMV-Renilla were stimulated with activin A and compounds for 16 hr (A) or 3 hr (B). […] One day after siRNA transfection, chondrogenic induction with activin A was initiated, and after 7 days the cells were harvested. […] FOP-iMSCs cultured with 10% FBS were treated with 100 nM rapamycin (Rapa) or TAK 165 (TAK) for 2 hr, and the cells were harvested. […] 1 μM TAK, 1 μM CP (CP-724714, another selective ERBB2 inhibitor), or 10 nM Rapa were applied in the experiments."}, "[2]": {"system": "NOD/SCID mice transplanted with FOP-iMSCs", "source_text": "(§2) MTOR s604 […]tt […]at […]\nFor X- ray images, mice were anesthetized with isoflurane (5% for induction, 2-3% for maintenance, Abbvie), immobilized and X-rayed using µFX-1000 (Fujifilm) or DX-50 (Faxitron Bioptics). µCT images were scanned using X-ray CT systems (inspeXio SMX-100CT, Shimadzu) and analyzed with TRI/3D-BON software (Ratoc System Engineering) according to the manufacturer's instructions. […]\nActivin-A-induced HO model transplanted with FOP-iMSCs. FOP- (right leg) and resFOP-iMSCs (left leg) (4 x 10^6 cells, respectively) were transplanted into the gastrocnemius muscle of NOD/ShiJic-scid Jcl (NOD/SCID) mice (8 weeks, male, CLEA Japan) with C3H -DoxOn-hINHBA (5 x 10^5 cells), which can continuously expose Activin-A to the transplanted iMSCs in vivo ( Hino et al., 2015) . In the Dox-induced group, 1 mg/mL Dox (Sigma-Aldrich) was administered via drinking water with 10 mg/mL sucrose (Nacalai Tesque) for two weeks after transplantation. Compounds were intraperitoneally administered once a day, five times a week. Eight weeks after transplantation, the transplanted cells were harvested , fixed with 4% paraformaldehyde for 24 h, embedded in paraffin, and sectioned and stained with HE, von Kossa, Safranin O, human specific anti-Vimentin antibody and Collagen I antibody as previously described (Hino et al., 2015; Umeda et al., 2012; […]"}, "[3]": {"system": "C57BL/6 mice", "assay": "Growth plate histology and normal bone µCT in compound-administered BMP-7-injected mice", "conditions": "5 mg/kg i.p., 2 weeks", "protocol": "as §2\nSystem Engineering) according to the manufacturer's instructions. […]\nBMP-7-induced HO model mice. BMP -7 (2 µ g/mouse) was injected into the right gastrocnemius muscle of C57BL/6NJcl mice (6-8 weeks, male, CLEA Japan), and compounds were administered once a day, five times a week (intraperitoneal administration). Mice were analyzed 2 weeks after injection. […]\n(§3) Histological analysis of growth plates chondrocytes. Knee joints were obtained from BMP-7-injected and test compounds-administrated C57BL/6NJcl mice after 2 weeks treatment and fixed, paraffin-embedded, and sectioned and stained with Safranin O. The thickness of the proliferative and hypertrophic zones of the growth plate were measured using ImageJ software on images obtained using a Keyence microscope (Keyence A merica). The proliferative zone was defined as the region with flat chondrocytes stacked in longitudinal columns, and the hypertrophic zone as the region where chondrocytes are enlarged in size and form clusters.\nNormal bone µCT. The left legs of mice were obtained from BMP -7-injected and test -compounds administrated C57BL/6NJcl mice after 2 weeks treatment. The region of interest (ROI) included the femur- tibia (entire femur in addition to the part of tibia above tibia/fibular junction). […]\nTests of side effects of direct and indirect mTOR inhibitors. Related"}, "[4]": {"system": "ERBB2", "conditions": "panel of 300 recombinant protein kinases; ref Anastassiadis et al., 2011; cited from earlier work"}, "[5]": {"system": "FOP-ACVR1 (R206H) conditional transgenic mice", "protocol": "as §2\nCardiotoxin-induced HO model in human FOP-ACVR1 conditional transgenic mice. Female hFOP-ACVR1 conditional transgenic mice (Beard et al., 2006; Hino et al., 2017; Ohnishi et al., 2014; Yamada et al., 2013) (f5-6 offspring of chimeric mice, age- and body weight- matched between groups) were used between 16 and 20 weeks of age. Mice were administered 2 mg/mL Dox in their drinking water supplemented with 10 mg / mL sucrose to induce FOP-ACVR1. Cardiotoxin (9.1 µg/mouse, Latoxan) was injected into the right gastrocnemius muscle to initiate skeletal muscle injury and subsequent heterotopic bone formation (Chakkalakal et al., 2012). Test compounds (16% DMSO in 0.5 w/v% Methyl Cellulose 400) were intraperitoneally administered once a day, five times a week. Mice were analyzed three weeks after injection.\nFor X- ray images, mice were anesthetized with isoflurane (5% for induction, 2-3% for maintenance, Abbvie), immobilized and X-rayed using µFX-1000 (Fujifilm) or DX-50 (Faxitron Bioptics). µCT images were scanned using X-ray CT systems (inspeXio SMX-100CT, Shimadzu) and analyzed with TRI/3D-BON software (Ratoc System Engineering) according to the manufacturer's instructions. Four weeks after injection, the injected sites were harvested, fixed with 4% paraformaldehyde for 24 h, embedded in paraffin, and sectioned and stained with HE, von Kossa, Safranin O and anti-Collagen I antibody as previously described ( Hino et al., 2015; U med a […]\nBMP-7-induced HO model mice. […] Mice were analyzed 2 weeks after injection. […]\nas §3, with “The proliferative zone was defined as the region with flat chondrocytes stacked in longitudinal columns, and the hypertrophic zone as the region where chondrocytes are enlarged in size and form clusters.” left out"}, "[6]": {"system": "BMP signaling (BRE-Luc)", "assay": "BRE-Luc reporter assay in FOP-iMSCs", "assay_type": "cell-based, human", "conditions": "activin A and compounds for 16 hr", "protocol": "as §1"}}}
{"compound": "FC(F)(F)c1ccc(/C=C/c2nc(COc3ccc(CCCCn4ccnn4)cc3)co2)cc1", "note": "[TAK 165, mubritinib]", "values": [{"measurement": "CAGA-Luc (TGF-β-responsive luciferase reporter)", "setting": "[1]", "value": "did not affect"}, {"measurement": "anti-human-specific vimentin-positive cells (survival of transplanted cells)", "setting": "[2]; 5 mg/kg i.p.", "value": "large number"}, {"measurement": "body weight change compared with vehicle group", "setting": "[2]; 5 mg/kg i.p.", "value": "No significant differences"}, {"measurement": "hypertrophic chondrocytes and von Kossa- and COL1-positive bone regions", "setting": "[2]; 5 mg/kg i.p.", "value": "fewer"}, {"measurement": "HO derived from FOP-iMSCs (heterotopic bone volume)", "setting": "[2]; 5 mg/kg i.p. once daily, five times a week, 8 weeks after transplantation", "value": "significantly suppressed"}, {"measurement": "Bone Mineral Density (normal bone µCT) vs vehicle", "setting": "[3]", "value": "n.s."}, {"measurement": "Bone volume (normal bone µCT, femur-tibia) vs vehicle", "setting": "[3]", "value": "n.s."}, {"measurement": "Hypertrophic zone thickness of growth plate vs vehicle", "setting": "[3]", "value": "n.s."}, {"measurement": "Proliferative zone thickness of growth plate vs vehicle", "setting": "[3]", "value": "n.s."}, {"measurement": "chondrogenesis of normal chondrocytes (growth plate)", "setting": "[3]", "value": "did not impair"}, {"measurement": "normal skeletal development in vivo", "setting": "[3]", "value": "did not impair"}, {"measurement": "selectivity for ERBB2", "setting": "[4]", "value": "highly selective"}, {"measurement": "body weight change compared with vehicle", "setting": "[5]; 5 mg/kg i.p.", "value": "No apparent differences"}, {"measurement": "von Kossa or COL1 staining of CTX-injected site", "setting": "[5]; 5 mg/kg i.p.", "value": "less positive staining"}, {"measurement": "heterotopic ossification (heterotopic bone volume)", "setting": "[5]; 5 mg/kg i.p. once daily, five times a week, 3 weeks after CTX", "value": "significantly suppressed"}, {"measurement": "BRE-Luc (BMP-specific luciferase reporter)", "setting": "[6]", "value": "did not affect"}]}
